In ChEMBL document CHEMBL5149996, “Structure-Based Optimization and Discovery of M3258, a Specific Inhibitor of the Immunoproteasome Subunit LMP7 (β5i)” (J Med Chem, 2021):
Active and inactive are the calls of the source. The rule behind the calls is not given here.

Tests used:
[1] = Kinetic solubility of the compound; assay type: physicochemical; settings: read-out: Kinetic_solubility
[2] = biological target: T1, Proteasome subunit beta type-7 (Homo sapiens, UniProt Q99436); assay: Inhibition of human 20S proteasome beta2 subunit using Ac-RLR-AMC as substrate preincubated for 2 hrs followed by substrate addition and measured after 1 hr by fluorescence intensity assay
T1 sequence (Q99436 whole entry): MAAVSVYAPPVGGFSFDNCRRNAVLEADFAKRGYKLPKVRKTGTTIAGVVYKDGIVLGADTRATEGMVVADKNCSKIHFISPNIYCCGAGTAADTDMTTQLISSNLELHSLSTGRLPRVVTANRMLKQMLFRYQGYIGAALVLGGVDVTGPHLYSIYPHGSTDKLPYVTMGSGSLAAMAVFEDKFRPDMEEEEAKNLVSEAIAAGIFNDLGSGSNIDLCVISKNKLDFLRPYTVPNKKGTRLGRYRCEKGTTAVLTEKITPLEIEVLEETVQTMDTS

[3] = biological target: T2, Proteasome Macropain subunit MB1 (Homo sapiens, UniProt P28074); assay: Inhibition of human 20S proteasome beta5 subunit using Suc-LLVY-AMC as substrate preincubated for 2 hrs followed by substrate addition and measured after 1 hr by fluorescence intensity assay
T2 sequence (P28074 whole entry): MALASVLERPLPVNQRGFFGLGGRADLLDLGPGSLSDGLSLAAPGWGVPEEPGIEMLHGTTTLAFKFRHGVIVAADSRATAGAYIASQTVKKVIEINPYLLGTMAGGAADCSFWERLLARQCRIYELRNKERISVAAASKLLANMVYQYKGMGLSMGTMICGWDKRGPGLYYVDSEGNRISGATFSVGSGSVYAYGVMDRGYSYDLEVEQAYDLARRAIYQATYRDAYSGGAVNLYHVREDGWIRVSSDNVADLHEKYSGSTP

Homo sapiens [4] = species on record: Homo sapiens; assay: Selectivity ratio of IC50 for inhibition of 20S proteasome beta5 subunit in human A549 cells to IC50 for inhibition of 20S immunoproteasome beta-5i subunit in human PBMC; assay type: cell-based
[5] = biological target: T3, Proteasome subunit beta type-10 (Homo sapiens, UniProt P40306); assay: Inhibition of human 20S immunoproteasome beta-2i subunit using Ac-RLR-AMC as substrate preincubated for 2 hrs followed by substrate addition and measured after 1 hr by fluorescence intensity assay
T3 sequence (P40306 whole entry): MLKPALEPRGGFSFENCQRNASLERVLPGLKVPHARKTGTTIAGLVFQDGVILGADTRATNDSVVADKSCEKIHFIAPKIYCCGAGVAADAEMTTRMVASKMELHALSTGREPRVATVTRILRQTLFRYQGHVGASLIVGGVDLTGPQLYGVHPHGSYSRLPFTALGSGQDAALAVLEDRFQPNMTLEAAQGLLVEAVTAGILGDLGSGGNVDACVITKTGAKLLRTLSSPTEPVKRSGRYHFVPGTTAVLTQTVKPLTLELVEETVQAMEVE

[6] = Half life in iv dosed mouse; assay type: ADME, organism-based; settings: in vivo
[7] = biological target: T4, Proteasome subunit beta type-6 (Homo sapiens, UniProt P28072); assay: Inhibition of human 20S […] beta1 subunit using Ac-nLPnLD-AMC as substrate preincubated for 2 hrs followed by substrate addition and measured after 1 hr by fluorescence intensity assay
T4 sequence (P28072 whole entry): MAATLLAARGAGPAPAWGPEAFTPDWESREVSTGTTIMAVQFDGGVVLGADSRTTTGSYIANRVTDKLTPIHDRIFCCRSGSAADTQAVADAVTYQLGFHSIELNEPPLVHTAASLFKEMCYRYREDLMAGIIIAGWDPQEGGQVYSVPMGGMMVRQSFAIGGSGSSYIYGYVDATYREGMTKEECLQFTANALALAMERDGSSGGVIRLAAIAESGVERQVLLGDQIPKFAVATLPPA

U-266 [8] = assay: In vivo inhibition of LMP7 activity in tumor lysates of H2d Rag2 mouse xenografted with human U266B1 cells at 1 mg/kg, po administered as single dose using (Ac-ANW)2R110 as substrate measured up to 14 hrs by fluorescence intensity assay; assay type: functional, organism-based; settings: Neoplasm
U-266 [9] = assay: Antitumor activity against human U266B1 cells xenografted in H2d Rag2 mouse assessed as reduction in tumor volume at 0.3 mg/kg, po administered once daily and measured for 21 days; assay type: functional, organism-based; settings: time 21.0 day
U-266 [10] = assay: Antitumor activity against human U266B1 cells xenografted in H2d Rag2 mouse assessed as reduction in tumor volume at 1 mg/kg, po administered once daily and measured for 21 days; assay type: functional, organism-based; settings: time 21.0 day
[11] = Lipophilicity, log P of the compound; assay type: physicochemical; settings: octanol/water
[12] = Cytotoxicity against human primary hepatocytes assessed as depletion of ATP content incubated for 48 to 72 hrs by CellTiter-Glo luminescent assay; assay type: toxicity, cell-based, Hepatocyte
[13] = Intrinsic clearance in mouse liver microsomes measured per mg protein; assay type: ADME, Microsome; settings: read-out: CLH
[14] = biological target: T2, Proteasome Macropain subunit MB1; assay: Inhibition of 20S proteasome beta5 subunit in human A549 cells using Suc-LLVY-luciferin substrate preincubated for 2 hrs followed by substrate addition and measured after 30 mins by luminometric analysis; assay type: cell-based
[15] = Cytotoxicity against Wistar Han rat hepatocytes assessed as depletion of ATP content incubated for 48 to 72 hrs by CellTiter-Glo luminescent assay; assay type: toxicity, cell-based, Hepatocyte
[16] = biological target: T5, Proteasome subunit beta type-9 (Homo sapiens, UniProt P28065); assay: Inhibition of human 20S immunoproteasome beta-1i subunit using (Ac-PAL)2R110 as substrate preincubated for 2 hrs followed by substrate addition and measured after 1 hr by fluorescence intensity assay
T5 sequence (P28065 whole entry): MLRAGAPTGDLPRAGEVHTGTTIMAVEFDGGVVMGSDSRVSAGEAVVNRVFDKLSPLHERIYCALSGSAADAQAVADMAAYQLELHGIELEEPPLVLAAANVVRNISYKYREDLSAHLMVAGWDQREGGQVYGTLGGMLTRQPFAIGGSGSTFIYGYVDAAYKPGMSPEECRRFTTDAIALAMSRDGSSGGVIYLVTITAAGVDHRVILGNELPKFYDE

Homo sapiens [17] = species on record: Homo sapiens; assay: Selectivity ratio of IC50 for inhibition of human 20S proteasome beta5 subunit to IC50 for inhibition of human 20S immunoproteasome beta-5i subunit
[18] = Intrinsic clearance in human liver microsomes measured per mg protein; assay type: ADME, Microsome
[19] = biological target: 5-hydroxytryptamine receptor 2A (Homo sapiens) (UniProt P28223); assay: Displacement of [125I](+/-)DOI from human recombinant 5HT2A receptor at 10 uM incubated for 60 mins by radiometric scintillation counting analysis
5-hydroxytryptamine receptor 2A (Homo sapiens), sequence (P28223 whole entry): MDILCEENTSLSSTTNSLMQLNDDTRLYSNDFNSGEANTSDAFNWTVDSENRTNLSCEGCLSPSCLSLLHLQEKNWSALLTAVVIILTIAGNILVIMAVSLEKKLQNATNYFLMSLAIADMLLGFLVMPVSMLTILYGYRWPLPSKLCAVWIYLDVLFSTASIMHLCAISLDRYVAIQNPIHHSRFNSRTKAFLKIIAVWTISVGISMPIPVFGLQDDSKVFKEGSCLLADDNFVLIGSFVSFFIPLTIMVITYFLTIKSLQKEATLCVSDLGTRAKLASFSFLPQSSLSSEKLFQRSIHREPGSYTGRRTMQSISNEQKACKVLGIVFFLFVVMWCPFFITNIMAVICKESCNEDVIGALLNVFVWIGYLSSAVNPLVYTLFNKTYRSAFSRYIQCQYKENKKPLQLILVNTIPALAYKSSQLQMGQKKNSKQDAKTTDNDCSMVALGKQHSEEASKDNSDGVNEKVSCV

[20] = Volume of distribution at steady state in iv dosed mouse; assay type: ADME, organism-based; settings: in vivo, read-out: Vdss
[21] = Clearance in iv dosed mouse; assay type: ADME, organism-based; settings: in vivo

`O=C(N[C@@H](Cc1coc2ccccc12)B(O)O)[C@@H]1C[C@H]2CC[C@@H]1O2` showed a solubility kinetic [1] greater than 200 µM, an IC50 [2] greater than 30 µM and an IC50 [3] of 2.5 µM. It also gave a Ratio IC50 (Homo sapiens [4]) of 305, an IC50 [5] greater than 30 µM and a half-life [6] of 1.71 h. For the same compound, the IC50 [7] was greater than 30 µM, the inhibition (U-266 [8]) was “Active” and the Activity (U-266 [9]) was “Active”. For the same compound, the Activity (U-266 [10]) was “Active”, the logP [11] was 2.34 and the IC50 [12] was 91 µM. The microsomal CLint [13] was 14 µL/min/mg, the IC50 [14] was 1.03 µM and the IC50 [15] was 64 µM. It also gave an IC50 [16] greater than 30 µM, a Ratio IC50 (Homo sapiens [17]) of 684 and a CLH [18] of less than 10 µL/min/mg. The inhibition [19] was “Active”, the Vd [20] was 0.47 L/kg and the clearance [21] was 3.17 mL/min/kg.
